Experiment [1] addresses T1, c-Abl kinase (His-tagged kinase domain of c-Abl) (Homo sapiens, UniProt P00519).
T1 construct: The His-tagged kinase domain of c-Abl is cloned and expressed in the baculovirus/Sf9 system; His tag; made in house; host or cells: Sf9 insect cells (baculovirus)
T1 sequence (P00519 242-493 limits assumed): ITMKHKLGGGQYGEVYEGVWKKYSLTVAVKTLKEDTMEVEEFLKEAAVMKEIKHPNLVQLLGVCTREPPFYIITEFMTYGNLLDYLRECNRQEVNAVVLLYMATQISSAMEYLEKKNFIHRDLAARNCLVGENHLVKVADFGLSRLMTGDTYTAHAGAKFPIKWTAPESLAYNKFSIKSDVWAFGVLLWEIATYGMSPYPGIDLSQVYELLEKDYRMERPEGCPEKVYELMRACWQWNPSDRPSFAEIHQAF
In words: c-Abl protein-tyrosine kinase in vitro enzyme filter binding assay. The class given is biochemical. As to conditions: % inhibition at 10 μM. On the procedure:
An in vitro enzyme assay is performed in 96-well plates as a filter binding assay as described by Geissler et al. in Cancer Res. 1992; 52:4492-4498, with the following modifications. The His-tagged kinase domain of c-Abl is cloned and expressed in the baculovirus/Sf9 system as described by Bhat et al. in J. Biol. Chem. 1997; 272:16170-16175. A protein of 37 kD (c-Abl kinase) is purified by a two-step procedure over a Cobalt metal chelate column followed by an anion exchange column with a yield of 1-2 mg/L of Sf9 cells (Bhat et al., reference cited). The purity of the c-Abl kinase is >90% as judged by SDS-PAGE after Coomassie blue staining. The assay contains (total volume of 30 μL): c-Abl kinase (50 ng), 20 mM Tris·HCl, pH 7.5, 10 mM MgCl2, 10 μM Na3VO4, 1 mM DTT and 0.06 μCi/assay [γ^33 P]-ATP (5 μM ATP) using 30 μg/mL poly-Ala,Glu,Lys,Tyr-6:2:5:1 (Poly-AEKY, Sigma P1152) in the presence of 1% DMSO. Reactions are terminated by adding 10 μL of 250 mM EDTA and 30 μL of the reaction mixture is transferred onto Immobilon-PVDF membrane (Millipore, Bedford, Mass., USA) previously soaked for 5 min with methanol, rinsed with water, then soaked for 5 min with 0.5% H3PO4 and mounted on vacuum manifold with disconnected vacuum source. After spotting all samples, vacuum is connected and each well rinsed with 200 μL 0.5% H3PO4. Membranes are removed and washed on a shaker with 0.5% H3PO4 (4 times) and once with ethanol. Membranes are counted after drying at ambient temperature, mounting in Packard TopCount 96-well frame, and addition of 10 μL/well of Microscint™ (Packard).
Enzymatic (c-Abl, KDR, Flt3) data are given on Table 17 (% inhibition at 10 μM). (Measurements are made as described above in the general description).

The target of experiment [2] is T2, human VEGF-R2 receptor (KDR) (Homo sapiens, UniProt P35968).
T2 construct: expressed in transfected cells
As to the kind of experiment: Inhibition of VEGF-induced VEGF-R2 (KDR) autophosphorylation in transfected CHO cells, sandwich ELISA. As to conditions: % inhibition at 10 μM. The class given is cell-based. The procedure: The inhibition of VEGF-induced receptor autophosphorylation can be confirmed with a further in vitro experiments in cells such as transfected CHO cells, which permanently express human VEGF-R2 receptor (KDR), are seeded in complete culture medium (with 10% fetal calf serum=FCS) in 6-well cell-culture plates and incubated at 37° C. under 5% CO2 until they show about 80% confluency. The compounds to be tested are then diluted in culture medium (without FCS, with 0.1% bovine serum albumin) and added to the cells. (Controls comprise medium without test compounds). After two hours of incubation at 37° C., recombinant VEGF is added; the final VEGF concentration is 20 ng/ml. After a further five minutes incubation at 37° C., the cells are washed twice with ice-cold PBS (phosphate-buffered saline) and immediately lysed in 100 μl lysis buffer per well. The lysates are then centrifuged to remove the cell nuclei, and the protein concentrations of the supernatants are determined using a commercial protein assay (BIORAD). The lysates can then either be immediately used or, if necessary, stored at −20° C.
The plates are then washed and the remaining free protein-binding sites are saturated with 3% TopBlock® (Juro, Cat. # TB232010) in phosphate buffered saline with Tween 20® (polyoxyethylen(20)sorbitane monolaurate, ICI/Uniquema) (PBST). The cell lysates (20 μg protein per well) are then incubated in these plates overnight at 4° C. together with an antiphosphotyrosine antibody coupled with alkaline phosphatase (PY20:AP from Zymed). […] The luminescence is measured in a Packard Top Count Microplate Scintillation Counter. The difference between the signal of the positive control (stimulated with VEGF) and that of the negative control (not stimulated with VEGF) corresponds to VEGF-induced VEGF-R2 phosphorylation (=100%). The activity of the tested substances is calculated as percent inhibition of VEGF-induced VEGF-R2 phosphorylation, wherein the concentration of substance that induces half the maximum inhibition is defined as the IC50 (inhibitory dose for 50% inhibition). […]
A general note: An ELISA detects its analyte on a solid surface through an enzyme-linked reagent.

T2 sequence (P35968 20-1356): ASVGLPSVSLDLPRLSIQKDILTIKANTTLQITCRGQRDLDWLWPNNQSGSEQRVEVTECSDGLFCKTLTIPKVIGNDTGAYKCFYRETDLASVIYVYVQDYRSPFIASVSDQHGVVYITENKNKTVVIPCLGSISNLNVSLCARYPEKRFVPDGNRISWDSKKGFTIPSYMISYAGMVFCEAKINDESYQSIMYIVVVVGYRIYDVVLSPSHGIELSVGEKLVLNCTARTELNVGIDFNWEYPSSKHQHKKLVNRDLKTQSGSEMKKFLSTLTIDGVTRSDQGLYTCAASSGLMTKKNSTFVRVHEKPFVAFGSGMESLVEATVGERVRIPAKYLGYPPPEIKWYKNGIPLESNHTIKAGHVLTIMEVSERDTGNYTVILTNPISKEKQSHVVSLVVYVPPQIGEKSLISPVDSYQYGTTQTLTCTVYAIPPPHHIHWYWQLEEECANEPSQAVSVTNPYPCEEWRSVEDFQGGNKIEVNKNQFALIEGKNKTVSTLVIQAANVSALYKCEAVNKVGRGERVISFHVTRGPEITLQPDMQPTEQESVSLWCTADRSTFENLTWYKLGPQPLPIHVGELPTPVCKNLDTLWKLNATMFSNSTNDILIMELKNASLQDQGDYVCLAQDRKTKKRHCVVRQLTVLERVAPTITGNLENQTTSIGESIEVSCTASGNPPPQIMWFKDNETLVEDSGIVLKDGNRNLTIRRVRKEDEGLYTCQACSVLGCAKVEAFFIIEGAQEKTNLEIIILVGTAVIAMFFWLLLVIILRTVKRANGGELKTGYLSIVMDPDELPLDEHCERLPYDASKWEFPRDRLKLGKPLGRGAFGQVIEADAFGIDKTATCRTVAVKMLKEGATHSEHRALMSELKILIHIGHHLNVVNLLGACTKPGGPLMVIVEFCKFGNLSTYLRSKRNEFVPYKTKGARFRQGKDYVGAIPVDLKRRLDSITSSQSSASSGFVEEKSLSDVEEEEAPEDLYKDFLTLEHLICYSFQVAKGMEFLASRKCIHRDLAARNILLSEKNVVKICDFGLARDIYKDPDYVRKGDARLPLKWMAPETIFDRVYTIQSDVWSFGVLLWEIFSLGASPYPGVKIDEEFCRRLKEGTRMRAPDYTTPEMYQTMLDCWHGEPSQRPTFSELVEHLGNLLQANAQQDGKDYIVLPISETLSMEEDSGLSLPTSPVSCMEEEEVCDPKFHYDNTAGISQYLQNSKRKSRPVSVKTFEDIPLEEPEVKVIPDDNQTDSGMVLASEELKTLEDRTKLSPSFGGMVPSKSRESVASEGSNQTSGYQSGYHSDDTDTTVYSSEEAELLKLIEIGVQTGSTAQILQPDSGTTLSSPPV

For `CCCc1ccc(NC(=O)Cc2ccc(Oc3ccncc3)cc2)cc1` [Example 18], the “c-Abl (% at 10 μM)” value in experiment [1] was 61%. The “KDR trans (% at 10 μM)” value in experiment [2] worked out at 99%.
Regarding `Cc1cc(Oc2ccc(NC(=O)Nc3cccc(C(F)(F)F)c3)cc2)ccn1` [Example 30], the “c-Abl (% at 10 μM)” value in experiment [1] was found to be 100%. Besides, the “KDR trans (% at 10 μM)” value in experiment [2] stood at 98%.
As for `O=C(Nc1ccc(Cc2ccncc2)cc1)Nc1cccc(C(F)(F)F)c1` [Example 15], the “c-Abl (% at 10 μM)” value in experiment [1] was 71%. The “KDR trans (% at 10 μM)” value in experiment [2] came to 99%.
For `CN(C(=O)Nc1cccc(C(F)(F)F)c1)c1ccc(Oc2ccncc2)cc1` [Example 6], the “c-Abl (% at 10 μM)” value in experiment [1] was 75%. Besides, the “KDR trans (% at 10 μM)” value in experiment [2] is 100%.
`O=C(Nc1ccc(Oc2ccncc2)cc1)Nc1ccc(OCC(F)(F)F)c(C(F)(F)F)c1` [Example 10]: the “c-Abl (% at 10 μM)” value in experiment [1] is listed as 98%. The “KDR trans (% at 10 μM)” value in experiment [2] amounted to 100%.
On to `CCc1ccc(NC(=O)Cc2ccc(Oc3ccncc3)cc2)cc1` [Example 16, N-(4-pyridin-4-yl-oxy-phenyl)acetyl-(4-ethyl-phenyl)-amide], for which the “c-Abl (% at 10 μM)” value in experiment [1] came out at 66%. Besides, in experiment [2], the “KDR trans (% at 10 μM)” value came to 99%.
For `Cc1ccc(NC(=O)Cc2ccc(Oc3ccncc3)cc2)cc1` [Example 17] the same measures were 18% and 96%.
`O=C(Nc1cccc(C(F)(F)F)c1)N1CCCc2cc(Oc3ccncc3)ccc21` [Example 20]: the “c-Abl (% at 10 μM)” value in experiment [1] was 84%. Further, the “KDR trans (% at 10 μM)” value in experiment [2] was 93%.
As for `Cc1ccc(NC(=O)N(C)c2ccc(Oc3ccncc3)cc2)cc1` [Example 8], the “c-Abl (% at 10 μM)” value in experiment [1] worked out at 48%. For the same compound, the “KDR trans (% at 10 μM)” value in experiment [2] came to 78%.
Taken in the same sequence, the figures for `Cc1ccc(NC(=O)Nc2ccc(Cc3ccncc3)cc2)cc1` [Example 14] were 26% and 97%.
Regarding `O=C(Nc1cccc(C(F)(F)F)c1)N1CCc2cc(Oc3ccncc3)ccc21` [Example 19, 5(4-pyridyloxy)-N-(3-trifluoromethyl-phenyl)amino-carbonyl-2,3-dihydroindole], the “c-Abl (% at 10 μM)” value in experiment [1] amounted to 92%. Also, in experiment [2], the “KDR trans (% at 10 μM)” value came out at 86%.
Take `O=C(Nc1ccc(Oc2ccncc2)cc1)Nc1ccc(Br)c(C(F)(F)F)c1` [Example 9]: in experiment [1], the “c-Abl (% at 10 μM)” value was found to be 100%. Further, in experiment [2], the “KDR trans (% at 10 μM)” value is listed as 92%.
As for `COc1cc(NC(=O)Nc2ccc(Oc3ccncc3)cc2)cc(C(F)(F)F)c1` [Example 11], in experiment [1], the “c-Abl (% at 10 μM)” value came out at 95%. Moreover, the “KDR trans (% at 10 μM)” value in experiment [2] worked out at 100%.
Taken in the same sequence, the figures for `Cc1ccc(NC(=O)Nc2ccc(Oc3ccncc3)cc2)cc1` [Example 4] were 59% and 99%.
On to `CCCc1ccc(NC(=O)N(C)c2ccc(Oc3ccncc3)cc2)cc1` [Example 7], for which, in experiment [1], the “c-Abl (% at 10 μM)” value is reported as 47%. The “KDR trans (% at 10 μM)” value in experiment [2] is listed as 97%.
Taken in the same sequence, the figures for `O=C(Nc1ccc(Oc2cc(Nc3ccc(O)cc3)ncn2)cc1)Nc1ccc(OCC(F)(F)F)c(C(F)(F)F)c1` [Example 32] were 98% and 96%.
`CCc1ccc(NC(=O)Nc2ccc(Cc3ccncc3)cc2)cc1` [Example 13]: the “c-Abl (% at 10 μM)” value in experiment [1] is 36%. Also, in experiment [2], the “KDR trans (% at 10 μM)” value came to 98%.
As for `CCc1ccc(NC(=O)N(C)c2ccc(Oc3ccncc3)cc2)cc1` [Example 5], in experiment [1], the “c-Abl (% at 10 μM)” value is 46%. Further, in experiment [2], the “KDR trans (% at 10 μM)” value was found to be 99%.
For `CCCc1ccc(NC(=O)Nc2ccc(Cc3ccncc3)cc2)cc1` [Example 12] the same measures were 33% and 97%.
For `O=C(Nc1ccc(Oc2cc(Cl)ncn2)cc1)Nc1cccc(C(F)(F)F)c1` [Example 21, N-(4-(6-Chloropyrimidin-4-yl)-oxyphenyl)-N′-(3-trifluoromethylphenyl)-urea] the same measures were 70% and 100%.

Values taken from patent US7652022B2, “Diaryl urea derivatives useful for the treatment of protein kinase dependent diseases” (Novartis AG, priority 2002, dated 2010).
